Measurements from US20070015828A1 (Wyeth, priority 2005, published 2007).
“Also recorded” adds a separate entry of the source.

Key:
Opiate, Kappa (hr) = molecular target: T1, Opiate, Kappa (hr) (Homo sapiens, UniProt P41145); assay: Receptor binding assay: Opiate Kappa; conditions: Test Compound @ 10 1 M
T1 construct: Novascreen (contract assay)

[1] = test system: spinal nerve ligation model of neuropathic pain, tactile allodynia; assay: Spinal nerve ligation model of neuropathic pain, tactile allodynia; format: in vivo; conditions: rat, up to 100 mg/kg
Protocol: 1-[2-dimethylamino-1-(4-phenol)ethyl]-cis-1,4-cyclohexandiol was evaluated in two in-vivo animal models for pain, including a Visceral Pain model and a Neuropathic Pain model.
Surgical procedures were performed under 4% isoflurane/O2 anesthesia, delivered via nose cone and maintained at 2.5% for the duration of the surgery. After induction of anesthesia, the incision site was shaved and prepared in a sterile manner. Spinal nerve ligation (SNL) surgery was performed as previously described [Kim, S. H. and Chung, J. M., An experimental model for peripheral neuropathy produced by segmental spinal nerve ligation in the rat, Pain, 50 (1992) 355-63] with the exception that nerve injury was produced by tight ligation of the left L5 spinal nerve. Briefly, a midline incision was made and the L5 transverse process was removed and the nerve was tightly ligated with 6-0 silk suture material and the wound was closed in layers with 4-0 vicryl suture and the skin closed with wound clips.

Serotonin, 5HT1D (h) = molecular target: T2, Serotonin, 5HT1D (h) (Homo sapiens, UniProt P28221); assay: Receptor binding assay: Serotonin 5HT1D; conditions: Test Compound @ 10 1 M
T2 construct: Novascreen (contract assay)

[2] = test system: Serotonin, 5HT1, non-selective; assay: Receptor binding assay: Serotonin 5HT1 non-selective; conditions: Test Compound @ 10 1 M
Serotonin, 5HT3 (hr) = molecular target: T3, Serotonin, 5HT3 (hr) (Homo sapiens, UniProt P46098); assay: Receptor binding assay: Serotonin 5HT3; conditions: Test Compound @ 10 1 M
T3 construct: Novascreen (contract assay)

Dopamine, D3 (hr) = Dopamine, D3 (hr) (Homo sapiens, UniProt P35462); assay: Receptor binding assay: Dopamine D3; conditions: Test Compound @ 10 1 M
Sigma 1 = assay: Receptor binding assay: Sigma 1; conditions: Test Compound @ 10 1 M
[3] = molecular target: T4, Benzodiazepine, peripheral (h) (Homo sapiens, UniProt P30536); assay: Receptor binding assay: Benzodiazepine peripheral; conditions: Test Compound @ 10 1 M
T4 construct: Novascreen (assay provider)

Adenosine A2A (hr) = Adenosine A2A (hr) (Homo sapiens, UniProt P29274); assay: Receptor binding assay: Adenosine A2A; conditions: Test Compound @ 10 1 M
Adrenergic, Beta 1 (hr) = Adrenergic, Beta 1 (hr) (Homo sapiens, UniProt P08588); assay: Receptor binding assay: Adrenergic Beta 1; conditions: Test Compound @ 10 1 M
Adrenergic, Alpha 1B = assay: Receptor binding assay: Adrenergic Alpha 1B; conditions: Test Compound @ 10 1 M
[4] = In vitro metabolism in hepatic microsomes, rat; format: in vitro ADME; conditions: Sprague-Dawley rats, read-out: t1/2 in hepatic microsomes
Protocol: In vitro metabolism of 1-[2-dimethylamino-1-(4-phenol)ethyl]-cis-1,4-cyclohexandiol was conducted in the hepatic microsomes of Sprague-Dawley rats, male dogs, male monkeys and mixed male and female humans to characterize metabolic stability and identification of metabolites. 1-[2-dimethylamino-1-(4-phenol)ethyl]-cis-1,4-cyclohexandiol was stable (t1/2>60 minutes) in hepatic microsomes indicating Phase I and II metabolism was minimal in all species.

Dopamine Transporter = assay: Dopamine transporter binding assay; conditions: Test Compound @ 10 1 M
Opiate, Mu (hr) = molecular target: T5, Opiate, Mu (hr) (Homo sapiens, UniProt P35372); assay: Receptor binding assay: Opiate Mu; conditions: Test Compound @ 10 1 M
T5 construct: Novascreen (contract assay)

rat tail flick assay = assay: Rat tail flick assay (acute pain); format: in vivo; conditions: up to 30 mg/kg po
Muscarinic, M2 (hr) = molecular target: T6, Muscarinic, M2 (hr) (Homo sapiens, UniProt P08172); assay: Receptor binding assay: Muscarinic M2; conditions: Test Compound @ 10 1 M
T6 construct: Novascreen (contract assay)

Adrenergic, Alpha 2B = assay: Receptor binding assay: Adrenergic Alpha 2B; conditions: Test Compound @ 10 1 M
[5] = test system: mouse PPQ induced writhing model; assay: Visceral pain model: PPQ-induced constrictions (writhing); format: in vivo
Protocol: 1-[2-dimethylamino-1-(4-phenol)ethyl]-cis-1,4-cyclohexandiol was dissolved in sterile saline and administered orally (p.o.) at dosages of 10 mg/kg, 30 mg/kg and 100 mg/kg. Gabapentin was purchased from Toronto Research Chemicals (Ontario, Canada) and suspended in 2% Tween 80 in 0.5% methylcellulose and administered intraperitoneally (i.p.).
For the visceral pain study male CD-1 mice (20-25 g, Charles River; Kingston/Stoneridge, NY) were housed in groups of 5/cage on bedding and for the neuropathic study male Sprague-Dawley rats (125-150 g, Harlan; Indianapolis, Ind.) were housed 3/cage on bedding. […]
The ability of 1-[2-dimethylamino-1-(4-phenol)ethyl]-cis-1,4-cyclohexandiol to attenuate acute visceral (abdominal) pain was assessed following an i.p. injection of 2 mg/kg PPQ (dissolved in 4% ethanol in distilled water, Sigma-Aldrich, St. Louis, Mo.) [Siegmund, E., et al., Proceedings of the Society for Experimental Biology and Medicine., 95 (1957) […]]. […] During testing, following PPQ administration, mice were individually placed in a Plexiglas cage and the total number of abdominal constrictions was recorded for one-minute periods, starting at 5 and 10 minutes after PPQ injection.
Statistical significance was determined using a one-way ANOVA using a customized SAS-excel application (SAS Institute, Cary, N.C.). […]

GABA A, Benzo, central = assay: Receptor binding assay: GABA A benzo central; conditions: Test Compound @ 10 1 M
[6] = molecular target: T7, Norepinephrine transporter (Homo sapiens, UniProt P23975); assay: Norepinephrine transporter (human recombinant) binding assay
T7 construct: Novascreen (contract assay)

Serotonin, 5HT2A (h) = molecular target: T8, Serotonin, 5HT2A (h) (Homo sapiens, UniProt P28223); assay: Receptor binding assay: Serotonin 5HT2A; conditions: Test Compound @ 10 1 M
T8 construct: Novascreen (contract assay)
T8 sequence (P28223 whole entry): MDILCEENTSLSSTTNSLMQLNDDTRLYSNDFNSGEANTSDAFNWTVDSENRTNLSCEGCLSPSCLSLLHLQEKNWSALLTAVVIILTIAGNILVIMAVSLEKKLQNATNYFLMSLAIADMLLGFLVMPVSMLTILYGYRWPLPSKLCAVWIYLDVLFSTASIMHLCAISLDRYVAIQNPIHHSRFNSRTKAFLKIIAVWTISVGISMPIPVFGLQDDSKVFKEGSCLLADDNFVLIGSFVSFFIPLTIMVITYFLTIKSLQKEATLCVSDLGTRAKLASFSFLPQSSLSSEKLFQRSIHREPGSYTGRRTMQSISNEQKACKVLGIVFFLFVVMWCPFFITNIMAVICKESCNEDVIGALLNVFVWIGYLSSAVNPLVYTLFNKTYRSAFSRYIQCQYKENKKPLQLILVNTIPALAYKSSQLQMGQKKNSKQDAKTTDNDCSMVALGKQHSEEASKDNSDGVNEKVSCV

T7 sequence (P23975 whole entry): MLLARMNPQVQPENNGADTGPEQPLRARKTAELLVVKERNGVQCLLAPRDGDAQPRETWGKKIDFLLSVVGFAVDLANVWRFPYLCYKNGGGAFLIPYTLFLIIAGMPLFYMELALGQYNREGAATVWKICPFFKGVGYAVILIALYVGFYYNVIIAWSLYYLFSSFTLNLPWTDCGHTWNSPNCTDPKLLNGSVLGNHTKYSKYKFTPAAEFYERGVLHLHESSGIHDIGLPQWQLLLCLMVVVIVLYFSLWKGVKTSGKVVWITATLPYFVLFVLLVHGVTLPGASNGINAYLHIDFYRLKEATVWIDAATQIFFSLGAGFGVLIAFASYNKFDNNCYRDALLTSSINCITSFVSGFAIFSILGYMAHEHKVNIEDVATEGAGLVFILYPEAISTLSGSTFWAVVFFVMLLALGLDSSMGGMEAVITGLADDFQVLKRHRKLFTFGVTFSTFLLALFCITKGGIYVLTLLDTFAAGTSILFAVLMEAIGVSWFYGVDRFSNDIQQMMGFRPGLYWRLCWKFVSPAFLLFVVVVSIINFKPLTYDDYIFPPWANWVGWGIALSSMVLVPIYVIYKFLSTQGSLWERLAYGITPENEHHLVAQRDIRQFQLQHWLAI
T6 sequence (P08172 whole entry): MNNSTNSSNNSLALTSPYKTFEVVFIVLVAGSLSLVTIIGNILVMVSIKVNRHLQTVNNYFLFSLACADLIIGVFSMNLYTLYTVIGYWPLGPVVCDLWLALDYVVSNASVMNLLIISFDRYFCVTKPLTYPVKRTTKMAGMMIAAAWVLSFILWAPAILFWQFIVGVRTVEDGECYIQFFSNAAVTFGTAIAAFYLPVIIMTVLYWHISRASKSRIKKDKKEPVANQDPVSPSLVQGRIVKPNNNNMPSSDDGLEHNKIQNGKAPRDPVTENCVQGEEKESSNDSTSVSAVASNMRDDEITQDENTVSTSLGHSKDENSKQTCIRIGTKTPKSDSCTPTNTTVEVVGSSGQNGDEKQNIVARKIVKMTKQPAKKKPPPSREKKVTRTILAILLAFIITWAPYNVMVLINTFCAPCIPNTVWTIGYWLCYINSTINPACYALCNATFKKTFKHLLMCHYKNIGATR
T3 sequence (P46098 24-478): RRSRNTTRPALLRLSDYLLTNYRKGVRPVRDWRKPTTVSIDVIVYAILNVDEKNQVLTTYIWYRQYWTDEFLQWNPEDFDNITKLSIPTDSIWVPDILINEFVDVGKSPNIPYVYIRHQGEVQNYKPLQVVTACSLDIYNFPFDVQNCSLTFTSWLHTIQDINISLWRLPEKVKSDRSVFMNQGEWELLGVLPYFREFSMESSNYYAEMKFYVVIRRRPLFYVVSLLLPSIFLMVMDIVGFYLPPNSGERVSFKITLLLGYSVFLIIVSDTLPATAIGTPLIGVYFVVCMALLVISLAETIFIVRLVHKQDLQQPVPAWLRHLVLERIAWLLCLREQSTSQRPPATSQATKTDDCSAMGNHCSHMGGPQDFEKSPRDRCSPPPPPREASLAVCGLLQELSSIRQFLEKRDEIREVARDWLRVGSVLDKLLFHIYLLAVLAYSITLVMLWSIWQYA
T2 sequence (P28221 whole entry): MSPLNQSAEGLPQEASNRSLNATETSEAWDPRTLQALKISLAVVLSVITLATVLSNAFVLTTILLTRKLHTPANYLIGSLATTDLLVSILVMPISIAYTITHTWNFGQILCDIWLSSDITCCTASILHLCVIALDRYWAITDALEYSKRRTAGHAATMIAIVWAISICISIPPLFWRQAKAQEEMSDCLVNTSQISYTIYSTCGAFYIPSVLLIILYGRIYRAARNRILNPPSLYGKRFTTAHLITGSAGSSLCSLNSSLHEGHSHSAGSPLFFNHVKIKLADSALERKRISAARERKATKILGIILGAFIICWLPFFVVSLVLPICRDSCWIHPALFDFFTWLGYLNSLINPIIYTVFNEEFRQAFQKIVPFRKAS
Adenosine A2A (hr), sequence (P29274 whole entry): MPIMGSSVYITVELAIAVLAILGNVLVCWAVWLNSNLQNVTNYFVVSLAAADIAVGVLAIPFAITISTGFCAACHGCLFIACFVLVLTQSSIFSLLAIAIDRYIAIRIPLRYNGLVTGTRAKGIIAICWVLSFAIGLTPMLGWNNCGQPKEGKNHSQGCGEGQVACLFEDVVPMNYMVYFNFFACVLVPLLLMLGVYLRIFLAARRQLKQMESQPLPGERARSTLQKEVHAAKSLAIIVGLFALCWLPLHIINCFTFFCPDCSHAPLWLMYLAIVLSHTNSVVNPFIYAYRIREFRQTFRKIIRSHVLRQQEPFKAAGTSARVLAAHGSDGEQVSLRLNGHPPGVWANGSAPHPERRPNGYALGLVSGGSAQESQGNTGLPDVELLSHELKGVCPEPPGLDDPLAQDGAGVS
T1 sequence (P41145 whole entry): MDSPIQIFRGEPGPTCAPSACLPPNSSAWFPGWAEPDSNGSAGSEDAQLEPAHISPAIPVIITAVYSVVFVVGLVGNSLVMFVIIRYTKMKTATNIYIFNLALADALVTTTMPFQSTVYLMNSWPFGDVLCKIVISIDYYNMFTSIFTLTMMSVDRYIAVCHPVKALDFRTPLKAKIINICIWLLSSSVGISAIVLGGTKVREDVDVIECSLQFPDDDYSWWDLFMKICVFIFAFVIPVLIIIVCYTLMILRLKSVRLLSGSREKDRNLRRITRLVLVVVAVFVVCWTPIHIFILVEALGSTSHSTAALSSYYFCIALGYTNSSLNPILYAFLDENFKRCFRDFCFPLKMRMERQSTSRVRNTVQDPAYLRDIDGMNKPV
Adrenergic, Beta 1 (hr), sequence (P08588 whole entry): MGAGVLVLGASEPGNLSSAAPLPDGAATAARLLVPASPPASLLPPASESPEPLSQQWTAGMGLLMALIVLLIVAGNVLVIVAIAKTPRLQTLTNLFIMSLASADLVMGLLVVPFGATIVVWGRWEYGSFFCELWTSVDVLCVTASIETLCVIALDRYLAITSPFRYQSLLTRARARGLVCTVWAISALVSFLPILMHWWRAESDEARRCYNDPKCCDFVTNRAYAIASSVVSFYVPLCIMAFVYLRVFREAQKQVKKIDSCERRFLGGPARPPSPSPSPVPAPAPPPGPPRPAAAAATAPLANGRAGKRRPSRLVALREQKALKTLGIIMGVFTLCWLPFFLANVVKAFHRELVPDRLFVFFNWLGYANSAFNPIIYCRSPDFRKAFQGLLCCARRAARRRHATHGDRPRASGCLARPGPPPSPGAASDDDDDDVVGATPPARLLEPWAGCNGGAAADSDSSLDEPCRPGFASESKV
T4 sequence (P30536 whole entry): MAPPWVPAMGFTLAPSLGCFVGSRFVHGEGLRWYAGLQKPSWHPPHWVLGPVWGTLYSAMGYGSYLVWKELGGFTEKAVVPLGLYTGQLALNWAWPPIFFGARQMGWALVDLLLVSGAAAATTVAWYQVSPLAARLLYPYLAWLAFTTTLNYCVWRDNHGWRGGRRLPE
T5 sequence (P35372 whole entry): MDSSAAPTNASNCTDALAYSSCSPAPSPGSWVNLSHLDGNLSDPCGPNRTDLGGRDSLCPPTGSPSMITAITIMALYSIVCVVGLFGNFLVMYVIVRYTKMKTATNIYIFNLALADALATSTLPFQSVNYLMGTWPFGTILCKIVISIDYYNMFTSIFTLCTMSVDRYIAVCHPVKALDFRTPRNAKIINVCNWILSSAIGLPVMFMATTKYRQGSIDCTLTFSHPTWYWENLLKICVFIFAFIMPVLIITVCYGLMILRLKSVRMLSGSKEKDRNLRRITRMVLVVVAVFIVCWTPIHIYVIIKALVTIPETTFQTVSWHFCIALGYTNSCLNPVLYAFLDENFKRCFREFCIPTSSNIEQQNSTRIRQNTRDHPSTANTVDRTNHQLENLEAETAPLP
Dopamine, D3 (hr), sequence (P35462 whole entry): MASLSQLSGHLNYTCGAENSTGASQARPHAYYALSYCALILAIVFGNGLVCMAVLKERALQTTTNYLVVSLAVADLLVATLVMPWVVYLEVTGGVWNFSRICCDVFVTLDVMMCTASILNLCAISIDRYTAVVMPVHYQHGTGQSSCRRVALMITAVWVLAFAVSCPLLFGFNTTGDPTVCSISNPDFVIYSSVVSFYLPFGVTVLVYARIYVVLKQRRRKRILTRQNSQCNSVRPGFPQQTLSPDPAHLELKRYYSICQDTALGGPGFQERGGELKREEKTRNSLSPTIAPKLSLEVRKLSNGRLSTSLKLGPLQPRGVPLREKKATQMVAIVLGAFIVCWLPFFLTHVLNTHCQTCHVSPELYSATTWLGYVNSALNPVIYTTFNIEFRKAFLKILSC

CN(C)CC(c1ccc(O)cc1)C1(O)CCC(O)CC1 (stereo not drawn) [1-[2-dimethylamino-1-(4-phenol)ethyl]-cis-1,4-cyclohexandiol]
inhibition at 10 µM (Opiate, Kappa (hr)): -4.17%
reversal of tactile allodynia [1]: not found to reverse
inhibition at 10 µM (Serotonin, 5HT1D (h)): 7.26%
Receptor Binding % Inhibition [2]: 5.09%
inhibition at 10 µM (Serotonin, 5HT3 (hr)): 9.72%
inhibition at 10 µM (Dopamine, D3 (hr)): 3.36%
Receptor Binding % Inhibition (Sigma 1): 2.96%
inhibition at 10 µM [3]: 1.65%
Receptor Binding % Inhibition (Adenosine A2A (hr)): 7.68%
inhibition at 10 µM (Adrenergic, Beta 1 (hr)): 7.65%
Receptor Binding % Inhibition (Adrenergic, Alpha 1B): 11.27%
half-life [4]: > 60 min
Receptor Binding % Inhibition (Dopamine Transporter): 8.49%
inhibition at 10 µM (Opiate, Mu (hr)): -0.35%
effect on acute pain (rat tail flick assay): not found to affect acute pain
inhibition at 10 µM (Muscarinic, M2 (hr)): 12%
Receptor Binding % Inhibition (Adrenergic, Alpha 2B): 8.60%
reversal of visceral pain (reduction in writhing) ([5]; 100 mg/kg p.o., 60 minutes prior to PPQ, 100 mg/kg): statistically significant reversal; also recorded: significant reduction
reduction in writhing ([5]; 10 and 30 mg/kg p.o.): not statistically significant
Receptor Binding % Inhibition (GABA A, Benzo, central): 0.20%
inhibition at 10 µM ([6]; Norepinephrine transporter, Test Compound @ 10 1 M, read-out: Receptor Binding % Inhibition): 49.7%
norepinephrine reuptake inhibition activity ([6]; interpretation of the binding data in words): acceptable
inhibition at 10 µM (Serotonin, 5HT2A (h)): 3.7%
